How the values were obtained:
[1] = system: NK-92 (IL-2 2.5 ng/mL); assay: drug sensitivity score (DSS) (DSS units); higher = more sensitive; extreme values may be limits of the assay; details: 72 h
[2] = system: normal primary NK cells, pool 1 (3 donors) (IL-2 2.5 ng/mL); assay: as above; details: 72 h
[3] = system: normal primary NK cells, pool 3 (3 donors) (IL-2 2.5 ng/mL); assay: as above; details: 72 h
[4] = system: IMC-1 (IL-2 20 ng/mL); assay: as above; details: 72 h
[5] = system: normal primary NK cells, pool 2 (3 donors) (IL-2 2.5 ng/mL); assay: as above; details: 72 h
[6] = system: NKL (IL-2 2.5 ng/mL); assay: as above; details: 72 h
[7] = system: KAI3 (IL-2 2.5 ng/mL); assay: as above; details: 72 h
[8] = system: normal primary NK cells, pool 1 (3 donors), resting (IL-2 0 ng/mL); assay: as above; details: 72 h
[9] = system: SNK-6 (IL-2 2.5 ng/mL); assay: as above; details: 72 h
[10] = system: DERL-7 (IL-2 2.5 ng/mL); assay: as above; details: 72 h
[11] = system: YT (IL-2 2.5 ng/mL); assay: as above; details: 72 h
[12] = system: NK-YS (IL-2 2.5 ng/mL); assay: as above; details: 72 h
[13] = system: KHYG-1 (IL-2 2.5 ng/mL); assay: as above; details: 72 h
[14] = system: NK-92 (IL-2 2.5 ng/mL); assay: percent inhibition of viability; higher = more inhibition; details: 72 h
[15] = system: normal primary NK cells, pool 1 (3 donors) (IL-2 2.5 ng/mL); assay: as above; details: 72 h
[16] = system: normal primary NK cells, pool 3 (3 donors) (IL-2 2.5 ng/mL); assay: as above; details: 72 h
[17] = system: IMC-1 (IL-2 20 ng/mL); assay: as above; details: 72 h
[18] = system: normal primary NK cells, pool 2 (3 donors) (IL-2 2.5 ng/mL); assay: as above; details: 72 h
[19] = system: NKL (IL-2 2.5 ng/mL); assay: as above; details: 72 h
[20] = system: KAI3 (IL-2 2.5 ng/mL); assay: as above; details: 72 h
[21] = system: normal primary NK cells, pool 1 (3 donors), resting (IL-2 0 ng/mL); assay: as above; details: 72 h
[22] = system: SNK-6 (IL-2 2.5 ng/mL); assay: as above; details: 72 h
[23] = system: DERL-7 (IL-2 2.5 ng/mL); assay: as above; details: 72 h
[24] = system: YT (IL-2 2.5 ng/mL); assay: as above; details: 72 h
[25] = system: NK-YS (IL-2 2.5 ng/mL); assay: as above; details: 72 h
[26] = system: KHYG-1 (IL-2 2.5 ng/mL); assay: as above; details: 72 h
[27] = system: normal NK cells expanded with K562-aAPC; assay: as above; details: 72 h, IL-2 2.5 ng/mL
Protocol: (§1)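 Drug sensitivity and resistance testing on K562-aAPC-expanded normal NK cells: 5 concentrations (10-fold steps over a 10,000-fold range), 72 h at 37 °C, viability by CellTiter-Glo normalised to DMSO and benzethonium chloride controls; DSS from the fitted curve.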

[28] = system: normal NK cells expanded with K562-aAPC; assay: drug sensitivity score (DSS) (DSS units); higher = more sensitive; extreme values may be limits of the assay; details: 72 h; IL-2 2.5 ng/mL
Protocol: as §1

C[C@@H](Oc1cc(-n2cnc3ccc(CN4CCN(C)CC4)cc32)sc1C(N)=O)c1ccccc1C(F)(F)F (max concentration tested 10000 nM)
Details | drug sensitivity score
[1] | 38.4
[2] | 8.55
[3] | 7.17
[4] | 29.6
[5] | 8.79
[6] | 27.8
[7] | 19.3
[8] | 15.5
[9] | 27.6
[10] | 31.2
[11] | 27.5
[12] | 23.1
[13] | 33.8
[28] | 19.8

percent inhibition of viability [%]
Details | 1 nM | 10 nM | 100 nM | 1000 nM | 10000 nM
[14] | -10.3 | 68.8 | 96.9 | 98.4 | 108
[15] | -0.02 | -2.73 | 1.92 | 18.8 | 99.3
[16] | -0.27 | -3.72 | 15.8 | 9.91 | 100
[17] | -5.44 | -5.88 | 96.8 | 98 | 99.8
[18] | -4.17 | -1.65 | 6.09 | 21.6 | 97.1
[19] | -22.4 | 10.7 | 76.8 | 76.5 | 107
[20] | -0.2 | 19.3 | 57.2 | 46.8 | 103
[21] | 15.5 | 24.8 | 22.1 | 54.6 | 96.9
[22] | -6.84 | 54.4 | 70.9 | 60.5 | 100
[23] | -5.05 | 5.6 | 99 | 97.7 | 101
[24] | -6.84 | 0.54 | 79.4 | 64 | 108
[25] | -6.78 | 7.77 | 68.5 | 63.2 | 107
[26] | -6.87 | 20.7 | 99 | 104 | 109
[27] | -4.93 | 10.2 | 55.8 | 59.8 | 101

Cn1cc(-c2ccc3nnc(C(F)(F)c4ccc5ncccc5c4)n3n2)cn1 (max concentration tested 10000 nM)
Details | drug sensitivity score
[1] | 2.9
[2] | 0
[3] | 0
[4] | 1.63
[5] | 0
[6] | 2.43
[7] | 0
[8] | 0
[9] | 5.6
[10] | 0
[11] | 0.87
[12] | 0
[13] | 0
[28] | 0.71

percent inhibition of viability [%]
Details | 1 nM | 10 nM | 100 nM | 1000 nM | 10000 nM
[14] | 3.19 | 2.36 | 1.58 | 20 | 16.7
[15] | -10.8 | -1.09 | -9.66 | -1.21 | 4
[16] | -11.6 | -17.9 | -6.24 | 0.44 | 0.55
[17] | 2.83 | 3.66 | 7.99 | 14.2 | 18.1
[18] | -8.18 | -11 | -4.17 | -3.65 | 7.05
[19] | 15.6 | 0.97 | 2.69 | 5.68 | 32.8
[20] | 3.43 | 0.25 | 2.09 | 1.51 | 5.42
[21] | -30.2 | -15.2 | -20.6 | -28.2 | -14.9
[22] | -5.06 | -3.02 | -0.1 | 27.9 | 44
[23] | -6.47 | 1.35 | -5.46 | -8.39 | -0.31
[24] | 2.08 | 2.01 | -0.66 | 8.07 | 15.4
[25] | -0.7 | -2.18 | -0.71 | 3.19 | 6.06
[26] | 0.7 | 1.87 | -1.15 | 9.39 | 7.11
[27] | 2.09 | -3.72 | 2.32 | 3.57 | 16.4

N#Cc1ccc(COC[C@H]2O[C@@H](n3c(NCc4ccc(Cl)c(Cl)c4)nc4c(N)ncnc43)[C@H](O)[C@@H]2O)cc1 (max concentration tested 10000 nM)
Details | drug sensitivity score
[1] | 3.57
[2] | 0.69
[3] | 0
[4] | 4.46
[5] | 0.06
[6] | 0
[7] | 3.83
[8] | 3.54
[9] | 5.74
[10] | 2.63
[11] | 5.18
[12] | 6.65
[13] | 5.29
[28] | 0.38

percent inhibition of viability [%]
Details | 1 nM | 10 nM | 100 nM | 1000 nM | 10000 nM
[14] | -0.8 | 4.51 | -4.4 | 7.42 | 45.2
[15] | -6.38 | -11.1 | 5.83 | 5.84 | 18.5
[16] | -13.6 | -13.5 | -14 | -9.19 | -0.46
[17] | -1.92 | -0.39 | -4.01 | -16.8 | 97.2
[18] | -10.6 | -2.26 | -3.97 | -0.12 | 12.3
[19] | 4.1 | 5.28 | -8.68 | 9.7 | 9.11
[20] | 1.01 | 1.02 | -1.36 | 17.5 | 34.8
[21] | -3.74 | -9.12 | 7.84 | 15.3 | 41
[22] | 5.72 | 12.3 | -10.3 | 21.8 | 52.5
[23] | 4.78 | 2.63 | 2.42 | 7.67 | 32.1
[24] | 2.07 | 0.4 | -2.55 | 12.2 | 59
[25] | -1.65 | 1.3 | -0.1 | 21.7 | 64.4
[26] | -2.11 | -1.26 | 0.87 | 11.4 | 62.4
[27] | -3.56 | -7.9 | -9.32 | 1.88 | 14.8
